{"source": "paper PMC8401933", "about": "(Molecules, 2021)", "key": {"AMPK-alpha1": {"target": "T1, AMPK-alpha1 (Homo sapiens, UniProt Q13131)", "T1 construct": "purchased Eurofins DiscoverX KINOMEscan", "assay": "KINOMEscan binding", "conditions": "read-out: Percent Control"}, "CDC2L1": {"target": "T2, CDC2L1 (Homo sapiens, UniProt P21127)", "T2 construct": "purchased Eurofins DiscoverX KINOMEscan", "assay": "KINOMEscan binding", "conditions": "read-out: Percent Control"}, "SRPK3": {"target": "T3, SRPK3 (Homo sapiens, UniProt Q9UPE1)", "T3 construct": "purchased Eurofins DiscoverX KINOMEscan", "assay": "KINOMEscan binding", "conditions": "read-out: Percent Control"}, "[1]": {"target": "T4, TYK2(JH1domain-catalytic) (Homo sapiens, UniProt P29597)", "T4 construct": "TYK2(JH1domain-catalytic); purchased Eurofins DiscoverX KINOMEscan", "T4 sequence (P29597 888-1187 limits assumed)": "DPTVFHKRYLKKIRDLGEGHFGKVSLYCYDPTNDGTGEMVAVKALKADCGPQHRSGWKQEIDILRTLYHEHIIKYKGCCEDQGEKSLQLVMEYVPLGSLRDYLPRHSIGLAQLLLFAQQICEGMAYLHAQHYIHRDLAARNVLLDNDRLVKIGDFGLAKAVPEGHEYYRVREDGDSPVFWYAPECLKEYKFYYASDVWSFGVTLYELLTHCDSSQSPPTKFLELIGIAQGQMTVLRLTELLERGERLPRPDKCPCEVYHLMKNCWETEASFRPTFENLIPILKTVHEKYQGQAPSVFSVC", "assay": "KINOMEscan binding", "conditions": "read-out: Percent Control"}, "[2]": {"target": "T5, ABL1(F317I)-phosphorylated (Homo sapiens, UniProt P00519, F317I)", "T5 construct": "purchased Eurofins DiscoverX KINOMEscan", "T5 sequence (P00519 whole entry F317I)": "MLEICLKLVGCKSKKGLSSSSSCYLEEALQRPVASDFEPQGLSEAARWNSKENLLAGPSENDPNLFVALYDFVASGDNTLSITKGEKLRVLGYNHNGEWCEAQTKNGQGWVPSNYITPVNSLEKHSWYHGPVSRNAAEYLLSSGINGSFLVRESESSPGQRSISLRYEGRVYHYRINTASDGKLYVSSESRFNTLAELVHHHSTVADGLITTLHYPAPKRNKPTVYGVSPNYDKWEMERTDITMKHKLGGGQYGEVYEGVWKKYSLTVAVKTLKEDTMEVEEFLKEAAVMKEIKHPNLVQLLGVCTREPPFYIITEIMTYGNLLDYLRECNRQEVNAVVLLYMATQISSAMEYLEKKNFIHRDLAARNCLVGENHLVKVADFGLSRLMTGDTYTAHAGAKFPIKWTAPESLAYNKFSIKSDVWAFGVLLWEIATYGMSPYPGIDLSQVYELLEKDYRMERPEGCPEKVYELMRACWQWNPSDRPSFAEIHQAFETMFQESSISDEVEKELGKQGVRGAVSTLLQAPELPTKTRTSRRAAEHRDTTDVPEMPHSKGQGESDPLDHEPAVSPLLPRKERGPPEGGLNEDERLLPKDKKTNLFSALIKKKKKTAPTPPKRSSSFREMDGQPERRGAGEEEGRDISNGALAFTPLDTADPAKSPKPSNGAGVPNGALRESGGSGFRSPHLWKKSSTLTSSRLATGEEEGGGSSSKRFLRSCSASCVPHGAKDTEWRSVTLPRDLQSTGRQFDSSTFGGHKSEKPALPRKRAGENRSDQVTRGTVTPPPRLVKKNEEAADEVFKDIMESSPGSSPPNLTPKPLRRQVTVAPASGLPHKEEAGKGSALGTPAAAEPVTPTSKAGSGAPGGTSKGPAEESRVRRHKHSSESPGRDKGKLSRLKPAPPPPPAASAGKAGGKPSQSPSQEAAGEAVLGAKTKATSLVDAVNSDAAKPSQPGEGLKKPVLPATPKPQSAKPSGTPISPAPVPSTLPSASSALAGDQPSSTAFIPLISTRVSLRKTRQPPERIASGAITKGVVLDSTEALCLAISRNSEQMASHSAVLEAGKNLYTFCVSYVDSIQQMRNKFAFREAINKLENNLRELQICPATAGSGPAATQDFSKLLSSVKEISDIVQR", "assay": "KINOMEscan binding", "conditions": "read-out: Percent Control"}, "CSF1R-autoinhibited": {"target": "T6, CSF1R-autoinhibited (Homo sapiens, UniProt P07333)", "T6 construct": "purchased Eurofins DiscoverX KINOMEscan", "assay": "KINOMEscan binding", "conditions": "read-out: Percent Control"}, "FAK": {"target": "T7, FAK (Homo sapiens, UniProt Q05397)", "T7 construct": "purchased Eurofins DiscoverX KINOMEscan", "assay": "KINOMEscan binding", "conditions": "read-out: Percent Control"}, "PRKCE": {"target": "T8, PRKCE (Homo sapiens, UniProt Q02156)", "T8 construct": "purchased Eurofins DiscoverX KINOMEscan", "assay": "KINOMEscan binding", "conditions": "read-out: Percent Control"}, "ULK2": {"target": "T9, ULK2 (Homo sapiens, UniProt Q8IYT8)", "T9 construct": "purchased Eurofins DiscoverX KINOMEscan", "assay": "KINOMEscan binding", "conditions": "read-out: Percent Control"}, "MTOR": {"target": "T10, MTOR (Homo sapiens, UniProt P42345)", "T10 construct": "purchased Eurofins DiscoverX KINOMEscan", "assay": "KINOMEscan binding", "conditions": "read-out: Percent Control"}, "CAMKK2": {"target": "T11, CAMKK2 (Homo sapiens, UniProt Q96RR4)", "T11 construct": "purchased Eurofins DiscoverX KINOMEscan", "assay": "KINOMEscan binding", "conditions": "read-out: Percent Control"}, "CDKL2": {"target": "T12, CDKL2 (Homo sapiens, UniProt Q92772)", "T12 construct": "purchased Eurofins DiscoverX KINOMEscan", "assay": "KINOMEscan binding", "conditions": "read-out: Percent Control"}, "SNRK": {"target": "T13, SNRK (Homo sapiens, UniProt Q9NRH2)", "T13 construct": "purchased Eurofins DiscoverX KINOMEscan", "assay": "KINOMEscan binding", "conditions": "read-out: Percent Control"}, "ACVRL1": {"target": "T14, ACVRL1 (Homo sapiens, UniProt P37023)", "T14 construct": "purchased Eurofins DiscoverX KINOMEscan", "T14 sequence (P37023 22-503)": "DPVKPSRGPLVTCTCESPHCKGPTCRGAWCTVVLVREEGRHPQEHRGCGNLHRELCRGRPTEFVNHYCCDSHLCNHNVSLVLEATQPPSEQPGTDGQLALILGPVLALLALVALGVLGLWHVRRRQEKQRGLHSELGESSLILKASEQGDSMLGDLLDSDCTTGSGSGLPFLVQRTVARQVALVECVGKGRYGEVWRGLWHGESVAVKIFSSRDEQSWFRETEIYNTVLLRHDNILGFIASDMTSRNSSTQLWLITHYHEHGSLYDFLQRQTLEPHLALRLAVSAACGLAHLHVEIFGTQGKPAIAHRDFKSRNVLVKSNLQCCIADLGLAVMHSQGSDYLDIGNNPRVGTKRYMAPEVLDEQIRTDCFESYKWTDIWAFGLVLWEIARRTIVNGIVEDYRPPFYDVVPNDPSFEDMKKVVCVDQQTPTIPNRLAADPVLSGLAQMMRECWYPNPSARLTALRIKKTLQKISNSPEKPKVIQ", "assay": "KINOMEscan binding", "conditions": "read-out: Percent Control"}, "RIOK3": {"target": "T15, RIOK3 (Homo sapiens, UniProt O14730)", "T15 construct": "purchased Eurofins DiscoverX KINOMEscan", "assay": "KINOMEscan binding", "conditions": "read-out: Percent Control"}, "[3]": {"tested_on": "Pparg and Cebpa genes in 3T3-L1 cells", "assay": "qRT-PCR of adipogenic genes during differentiation", "assay_type": "cell-based", "conditions": "3T3-L1 during differentiation; KD025 5 μM, CX-4945 10 μM, Y-27632 10 μM", "procedure": "The preadipocyte 3T3-L1 cell line was kindly provided by Dr. Hyun-Sung Park (University of Seoul) and cultured in Dulbecco’s modified Eagle’s medium (DMEM, Sigma-Aldrich) supplied with 10% heat-inactivated newborn calf serum (Invitrogen, CA, USA), 100 units/mL penicillin, and 100 µg/mL streptomycin (Cellgro, VA, USA). The cells were maintained in an incubator at 37 °C and 5% CO2. To initiate differentiation, the cells were incubated for additional days after 100% confluence and then further incubated in a medium containing fetal bovine serum (FBS) and a differentiation cocktail (DMI, 1 μM dexamethasone, 0.5 mM 3-isobutyl-1-methylxanthine, and 5 μg/mL insulin) as previously described. In brief, at day 3, the culture medium was replaced with DMEM/10%FBS containing 5 µg/mL insulin. Then, growth medium was changed every 2 days.\nTotal RNA was extracted using easy-BLUE (iNtRON Biotechnology, Dajeon, Korea) in accordance with the manufacturer’s protocol. cDNA was synthesized from 2 µg of total RNA using TOPscript^TM Drymix Kit (Enzynomics, Dajeon, Korea). qRT-PCR was performed using TB Green ® Premix Ex Taq^TM II (Tli RNAse H Plus) (TaKaRa, Japan) with Applied Biosystems QuantStudio™ 1 Real-Time PCR System (Thermo Fisher Scientific, Waltham, MA, USA). Gene expression data were normalized based on the use of the same amount of total RNA samples. The relative fold change of gene expression was calculated using the ∆Ct method."}, "PKAC-beta": {"target": "T16, PKAC-beta (Homo sapiens, UniProt P22694)", "T16 construct": "purchased Eurofins DiscoverX KINOMEscan", "assay": "KINOMEscan binding", "conditions": "read-out: Percent Control"}, "RIPK1": {"target": "T17, RIPK1 (Homo sapiens, UniProt Q13546)", "T17 construct": "purchased Eurofins DiscoverX KINOMEscan", "assay": "KINOMEscan binding", "conditions": "read-out: Percent Control"}, "CSNK1A1": {"target": "T18, CSNK1A1 (Homo sapiens, UniProt P48729)", "T18 construct": "purchased Eurofins DiscoverX KINOMEscan", "assay": "KINOMEscan binding", "conditions": "read-out: Percent Control"}, "ABL2": {"target": "T19, ABL2 (Homo sapiens, UniProt P42684)", "T19 construct": "purchased Eurofins DiscoverX KINOMEscan", "assay": "KINOMEscan binding", "conditions": "read-out: Percent Control"}, "p38-gamma": {"target": "T20, p38-gamma (Homo sapiens, UniProt P53778)", "T20 construct": "purchased Eurofins DiscoverX KINOMEscan", "assay": "KINOMEscan binding", "conditions": "read-out: Percent Control"}, "PKNB(M.tuberculosis)": {"target": "T21, PKNB(M.tuberculosis) (Mycobacterium tuberculosis, UniProt P9WI81)", "T21 construct": "purchased Eurofins DiscoverX KINOMEscan", "assay": "KINOMEscan binding", "conditions": "read-out: Percent Control"}, "PIP5K1C": {"target": "T22, PIP5K1C (Homo sapiens, UniProt O60331)", "T22 construct": "purchased Eurofins DiscoverX KINOMEscan", "assay": "KINOMEscan binding", "conditions": "read-out: Percent Control"}, "RET(M918T)": {"target": "T23, RET(M918T) (Homo sapiens, UniProt P07949, M918T)", "T23 construct": "purchased Eurofins DiscoverX KINOMEscan", "T23 sequence (P07949 29-1114 M918T)": "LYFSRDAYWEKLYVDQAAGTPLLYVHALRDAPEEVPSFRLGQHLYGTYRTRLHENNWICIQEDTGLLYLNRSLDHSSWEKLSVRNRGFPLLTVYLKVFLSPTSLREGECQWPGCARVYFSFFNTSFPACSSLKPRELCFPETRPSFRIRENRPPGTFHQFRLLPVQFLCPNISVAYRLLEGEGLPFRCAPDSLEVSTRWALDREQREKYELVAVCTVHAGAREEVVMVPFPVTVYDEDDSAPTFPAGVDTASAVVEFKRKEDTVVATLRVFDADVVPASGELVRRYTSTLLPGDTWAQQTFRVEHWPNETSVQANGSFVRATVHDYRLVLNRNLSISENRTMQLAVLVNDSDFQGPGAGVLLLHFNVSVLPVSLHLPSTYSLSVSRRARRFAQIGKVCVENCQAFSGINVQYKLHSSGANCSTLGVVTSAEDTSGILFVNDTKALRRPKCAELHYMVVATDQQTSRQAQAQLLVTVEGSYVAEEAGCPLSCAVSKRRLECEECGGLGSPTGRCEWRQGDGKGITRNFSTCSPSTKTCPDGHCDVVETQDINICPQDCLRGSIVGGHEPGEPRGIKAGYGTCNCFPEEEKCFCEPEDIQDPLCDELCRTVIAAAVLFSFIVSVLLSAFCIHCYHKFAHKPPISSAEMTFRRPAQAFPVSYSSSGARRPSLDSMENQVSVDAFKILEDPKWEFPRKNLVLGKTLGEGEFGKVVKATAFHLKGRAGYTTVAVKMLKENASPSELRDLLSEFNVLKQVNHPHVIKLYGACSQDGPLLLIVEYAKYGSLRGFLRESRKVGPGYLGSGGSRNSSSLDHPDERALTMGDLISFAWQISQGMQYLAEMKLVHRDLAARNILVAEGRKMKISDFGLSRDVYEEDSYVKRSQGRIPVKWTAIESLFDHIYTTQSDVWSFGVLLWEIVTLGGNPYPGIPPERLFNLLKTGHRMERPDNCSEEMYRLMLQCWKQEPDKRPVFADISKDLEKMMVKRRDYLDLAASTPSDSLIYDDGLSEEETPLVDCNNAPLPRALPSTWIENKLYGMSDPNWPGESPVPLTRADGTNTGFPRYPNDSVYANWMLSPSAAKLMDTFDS", "assay": "KINOMEscan binding", "conditions": "read-out: Percent Control"}, "PLK3": {"target": "T24, PLK3 (Homo sapiens, UniProt Q9H4B4)", "T24 construct": "purchased Eurofins DiscoverX KINOMEscan", "assay": "KINOMEscan binding", "conditions": "read-out: Percent Control"}, "TEC": {"target": "T25, TEC (Homo sapiens, UniProt P42680)", "T25 construct": "purchased Eurofins DiscoverX KINOMEscan", "assay": "KINOMEscan binding", "conditions": "read-out: Percent Control"}, "ABL1-phosphorylated": {"target": "T26, ABL1-phosphorylated (Homo sapiens, UniProt P00519)", "T26 construct": "purchased Eurofins DiscoverX KINOMEscan", "assay": "KINOMEscan binding", "conditions": "read-out: Percent Control"}, "SGK2": {"target": "T27, SGK2 (Homo sapiens, UniProt Q9HBY8)", "T27 construct": "purchased Eurofins DiscoverX KINOMEscan", "assay": "KINOMEscan binding", "conditions": "read-out: Percent Control"}, "CAMK1": {"target": "T28, CAMK1 (Homo sapiens, UniProt Q14012)", "T28 construct": "purchased Eurofins DiscoverX KINOMEscan", "assay": "KINOMEscan binding", "conditions": "read-out: Percent Control"}, "MAP4K4": {"target": "T29, MAP4K4 (Homo sapiens, UniProt O95819)", "T29 construct": "purchased Eurofins DiscoverX KINOMEscan", "assay": "KINOMEscan binding", "conditions": "read-out: Percent Control"}, "[4]": {"target": "T30, RSK3(Kin.Dom.1-N-terminal) (Homo sapiens, UniProt Q15349)", "T30 construct": "RSK3(Kin.Dom.1-N-terminal); purchased Eurofins DiscoverX KINOMEscan", "T30 sequence (Q15349 1-414 limits assumed)": "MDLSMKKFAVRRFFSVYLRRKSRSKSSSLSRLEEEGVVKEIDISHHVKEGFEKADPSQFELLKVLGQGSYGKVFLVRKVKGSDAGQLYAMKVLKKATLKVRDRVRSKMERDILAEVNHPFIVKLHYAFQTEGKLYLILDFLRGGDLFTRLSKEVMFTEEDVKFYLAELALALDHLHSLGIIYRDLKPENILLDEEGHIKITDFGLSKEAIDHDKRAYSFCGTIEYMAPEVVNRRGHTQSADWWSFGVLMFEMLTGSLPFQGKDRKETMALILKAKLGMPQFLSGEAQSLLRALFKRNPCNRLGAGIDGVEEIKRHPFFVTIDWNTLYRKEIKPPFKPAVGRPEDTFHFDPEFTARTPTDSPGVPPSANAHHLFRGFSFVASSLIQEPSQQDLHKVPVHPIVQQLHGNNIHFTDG", "assay": "KINOMEscan binding", "conditions": "read-out: Percent Control"}, "PIK3CA(E545A)": {"target": "T31, PIK3CA(E545A) (Homo sapiens, UniProt P42336, E545A)", "T31 construct": "purchased Eurofins DiscoverX KINOMEscan", "T31 sequence (P42336 whole entry E545A)": "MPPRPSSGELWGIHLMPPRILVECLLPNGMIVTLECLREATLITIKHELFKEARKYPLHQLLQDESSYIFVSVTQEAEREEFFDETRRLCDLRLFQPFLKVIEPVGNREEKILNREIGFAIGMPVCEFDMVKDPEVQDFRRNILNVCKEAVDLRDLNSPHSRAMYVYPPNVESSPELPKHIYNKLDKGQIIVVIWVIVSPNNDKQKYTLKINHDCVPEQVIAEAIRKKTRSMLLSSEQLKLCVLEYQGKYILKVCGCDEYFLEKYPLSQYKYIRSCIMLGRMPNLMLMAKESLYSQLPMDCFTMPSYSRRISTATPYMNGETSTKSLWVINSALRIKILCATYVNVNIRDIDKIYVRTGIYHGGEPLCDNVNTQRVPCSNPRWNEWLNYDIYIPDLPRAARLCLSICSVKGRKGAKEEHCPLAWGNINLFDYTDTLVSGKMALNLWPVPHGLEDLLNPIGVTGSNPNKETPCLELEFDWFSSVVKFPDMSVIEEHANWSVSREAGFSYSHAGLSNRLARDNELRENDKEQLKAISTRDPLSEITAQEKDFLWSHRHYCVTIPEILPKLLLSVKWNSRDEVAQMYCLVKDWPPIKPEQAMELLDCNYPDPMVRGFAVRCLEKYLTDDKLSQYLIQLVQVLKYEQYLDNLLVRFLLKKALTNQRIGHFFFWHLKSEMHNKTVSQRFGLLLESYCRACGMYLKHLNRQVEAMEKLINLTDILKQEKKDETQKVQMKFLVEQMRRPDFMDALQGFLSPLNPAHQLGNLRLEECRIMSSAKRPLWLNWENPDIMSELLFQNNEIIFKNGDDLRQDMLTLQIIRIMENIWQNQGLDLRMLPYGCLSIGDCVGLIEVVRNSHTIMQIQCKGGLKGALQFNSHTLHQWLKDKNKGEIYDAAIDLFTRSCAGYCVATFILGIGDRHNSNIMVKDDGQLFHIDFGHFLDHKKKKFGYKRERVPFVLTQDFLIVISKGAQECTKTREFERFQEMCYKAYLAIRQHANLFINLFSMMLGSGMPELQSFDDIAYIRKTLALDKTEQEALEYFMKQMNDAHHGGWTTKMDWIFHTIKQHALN", "assay": "KINOMEscan binding", "conditions": "read-out: Percent Control"}, "RET(V804M)": {"target": "T32, RET(V804M) (Homo sapiens, UniProt P07949, V804M)", "T32 construct": "purchased Eurofins DiscoverX KINOMEscan", "T32 sequence (P07949 29-1114 V804M)": "as the sequence (P07949 29-1114 M918T) above, with V776M, T890M counted along it", "assay": "KINOMEscan binding", "conditions": "read-out: Percent Control"}}, "data": [{"smiles": "CC(C)NC(=O)COc1cccc(-c2nc(Nc3ccc4[nH]ncc4c3)c3ccccc3n2)c1", "note": "[KD025, 2-(3-(4-((1H-indazol-5-yl)amino)quinazolin-2-yl)phenoxy)-N-isopropylacetamide]", "values": [{"measurement": "remaining binding at 10 µM", "setting": "AMPK-alpha1", "result": 76, "unit": "%"}, {"measurement": "remaining binding at 10 µM", "setting": "CDC2L1", "result": 98, "unit": "%"}, {"measurement": "remaining binding at 10 µM", "setting": "SRPK3", "result": 5.7, "unit": "%"}, {"measurement": "remaining binding at 10 µM", "setting": "[1]", "result": 95, "unit": "%"}, {"measurement": "remaining binding at 10 µM", "setting": "[2]", "result": 93, "unit": "%"}, {"measurement": "remaining binding at 10 µM", "setting": "CSF1R-autoinhibited", "result": 91, "unit": "%"}, {"measurement": "remaining binding at 10 µM", "setting": "FAK", "result": 92, "unit": "%"}, {"measurement": "remaining binding at 10 µM", "setting": "PRKCE", "result": 88, "unit": "%"}, {"measurement": "remaining binding at 10 µM", "setting": "ULK2", "result": 87, "unit": "%"}, {"measurement": "remaining binding at 10 µM", "setting": "MTOR", "result": 92, "unit": "%"}, {"measurement": "remaining binding at 10 µM", "setting": "CAMKK2", "result": 100, "unit": "%"}, {"measurement": "remaining binding at 10 µM", "setting": "CDKL2", "result": 100, "unit": "%"}, {"measurement": "remaining binding at 10 µM", "setting": "SNRK", "result": 14, "unit": "%"}, {"measurement": "remaining binding at 10 µM", "setting": "ACVRL1", "result": 76, "unit": "%"}, {"measurement": "remaining binding at 10 µM", "setting": "RIOK3", "result": 6.7, "unit": "%"}, {"measurement": "expression of Pparg and Cebpa genes", "setting": "[3]", "result": "suppressed"}, {"measurement": "remaining binding at 10 µM", "setting": "PKAC-beta", "result": 98, "unit": "%"}, {"measurement": "remaining binding at 10 µM", "setting": "RIPK1", "result": 86, "unit": "%"}, {"measurement": "remaining binding at 10 µM", "setting": "CSNK1A1", "result": 80, "unit": "%"}, {"measurement": "remaining binding at 10 µM", "setting": "ABL2", "result": 92, "unit": "%"}, {"measurement": "remaining binding at 10 µM", "setting": "p38-gamma", "result": 60, "unit": "%"}, {"measurement": "remaining binding at 10 µM", "setting": "PKNB(M.tuberculosis)", "result": 83, "unit": "%"}, {"measurement": "remaining binding at 10 µM", "setting": "PIP5K1C", "result": 47, "unit": "%"}, {"measurement": "remaining binding at 10 µM", "setting": "RET(M918T)", "result": 66, "unit": "%"}, {"measurement": "remaining binding at 10 µM", "setting": "PLK3", "result": 72, "unit": "%"}, {"measurement": "remaining binding at 10 µM", "setting": "TEC", "result": 95, "unit": "%"}, {"measurement": "remaining binding at 10 µM", "setting": "ABL1-phosphorylated", "result": 73, "unit": "%"}, {"measurement": "remaining binding at 10 µM", "setting": "SGK2", "result": 100, "unit": "%"}, {"measurement": "remaining binding at 10 µM", "setting": "CAMK1", "result": 100, "unit": "%"}, {"measurement": "remaining binding at 10 µM", "setting": "MAP4K4", "result": 87, "unit": "%"}, {"measurement": "remaining binding at 10 µM", "setting": "[4]", "result": 31, "unit": "%"}, {"measurement": "remaining binding at 10 µM", "setting": "PIK3CA(E545A)", "result": 65, "unit": "%"}, {"measurement": "remaining binding at 10 µM", "setting": "RET(V804M)", "result": 59, "unit": "%"}]}]}
